# Test results taken from BindingDB's records for patent US20250163064 (Amgen, 2025).
# Experiments:
# kras g12d tr-fret = kras g12d tr-fret (Homo sapiens, UniProt P01116, G12D); experiment: KRAS G12D TR-FRET Assay
# Description: The His-tagged KRAS G12D protein (Amgen) was diluted to 20 nM in Assay Buffer (20 mM HEPES, pH 7.4, 10 mM MgCl2, 50 mM NaCl, 0.1% BSA, 0.01% Tween-20, 10 μM GDP) and 2 μL was added to the appropriate wells of the 384-well plate. The plate was incubated for 30 minutes at rt. Biotinylated KRPep-2d substrate (Amgen) was diluted to […] in Assay Buffer and 2 AL was added to all wells and incubated for 1 hour at room temperature. Detection Reagent (0.4 nM LANCE Eu-W1024 Anti-6×His (Perkin Elmer AD0401), 5 nM streptavidin-d2 (Cisbio 610SADLA)) was prepared in Assay Buffer, then 4 AL was added to the plate and incubated for 1 h at rt.
# GTPase KRas [G12D,C118A] = GTPase KRas [G12D,C118A] (Homo sapiens, UniProt P01116, C118A/G12D); experiment: KRAS G12D Coupled Nucleotide Exchange Assay
# Sequence of GTPase KRas [G12D,C118A] (P01116 whole entry G12D/C118A, looked up): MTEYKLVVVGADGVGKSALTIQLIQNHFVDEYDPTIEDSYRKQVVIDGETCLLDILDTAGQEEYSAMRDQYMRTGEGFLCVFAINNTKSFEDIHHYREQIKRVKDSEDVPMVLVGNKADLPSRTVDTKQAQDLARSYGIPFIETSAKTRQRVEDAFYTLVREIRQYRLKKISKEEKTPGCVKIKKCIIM
# Description: The assay plates were then read on a PerkinElmer En Vision Multilabel Reader, using AlphaScreen technology, and data were analyzed using a 4-parameter logistic model to calculate IC50 values.
# Sequence of kras g12d tr-fret (P01116 whole entry G12D): as the sequence (P01116 whole entry G12D/C118A, looked up) above, with A118C counted along it
IC50 (kras g12d tr-fret),"IC50 (GTPase KRas [G12D,C118A])",SMILES
4 nM,6 nM,"N#Cc1c(N)sc2c(F)ccc(-c3c(Cl)cc4c(N5CC6CC(O)C(C6)C5)nc(OC[C@@]56CCCN5C[C@H](F)C6)nc4c3F)c12 (mixture of isomers) [US20250163064, Example 7]"
4 nM,7 nM,"N#Cc1c(N)sc2c(F)ccc(-c3c(Cl)cc4c(N5CCCC(C#N)CC5)nc(OC[C@@]56CCCN5C[C@H](F)C6)nc4c3F)c12 (some centres undefined) [US20250163064, Example 3]"
4 nM,6 nM,"N#Cc1c(N)sc2c(F)ccc(-c3c(Cl)cc4c(N5CCCC[C@@H](O)C5)nc(OC[C@@]56CCCN5C[C@H](F)C6)nc4c3F)c12 [US20250163064, Example 4]"
,5 nM,"N#Cc1c(N)sc2c(F)ccc(-c3c(Cl)cc4c(N5CCOCC(=O)C5)nc(OC[C@@]56CCCN5C[C@H](F)C6)nc4c3F)c12 [US20250163064, Example 6]"
3 nM,6 nM,"N#Cc1c(N)sc2c(F)ccc(-c3c(Cl)cc4c(N5CCCC6(CNC(=O)O6)C5)nc(OC[C@@]56CCCN5C[C@H](F)C6)nc4c3F)c12 (some centres undefined) [US20250163064, Example 17]"
